Measurements taken from US20260199426A1, “CYCLIC LIPOPEPTIDE ANTIBIOTIC COMPOUNDS FOR USE IN THE TREATMENT OF PROTEIN AGGREGATION DISEASE” (DEUTSCHES ZENTRUM FÜR NEURODEGENERATIVE ERKRANKUNGEN E. V., priority 2022, published 2026).
*1 amine or outer side, *2 acyl side, *3 side chain or, on linkers, in order; H or OH if unused. Where a SMILES comes first, the peptide text is derived from it. Bridges are numbered along the chain shown (N, C = ends). [ ]: non-standard residue; d: D form. The star is where a group is joined. ξ: configuration not given here. X2 = O=C(C(N[*:1])c1ccc(OC2OC(CO)C(O)C(O)C2OC2OC(CO)C(O)C(O)C2O)cc1)[*:2]; Octa(2Z,4E)dienoyl(7-Me) = CC(C)C/C=C/C=C\C(=O)*; ξPhg(3-Cl-4-OH) = NC(C(=O)O)c1ccc(O)c(Cl)c1; X1 = NC(=O)C(O[*:3])C(N[*:1])C(=O)[*:2]; Hpg = N[CH](C(=O)O)c1ccc(O)cc1; Orn = NCCC[CH](N)C(=O)O

Tested on: PS19 mouse model of tauopathy (human MAPT P301S)
Assay: Behavior, neuropathology and survival of PS19 mice
Format: in vivo
Conditions: 50, 100, and 150 mg/kg in feed, approximately 8 months

In the case of `CC(C)C/C=C/C=C\C(=O)NC(CC(N)=O)C(=O)NC1C(=O)NC(c2ccc(O)cc2)C(=O)NC(CCCN)C(=O)NC(C(C)O)C(=O)NC(c2ccc(O)cc2)C(=O)NC(c2ccc(O)cc2)C(=O)NC(C(C)O)C(=O)NC(Cc2ccccc2)C(=O)NC(CCCN)C(=O)NC(c2ccc(OC3OC(CO)C(O)C(O)C3OC3OC(CO)C(O)C(O)C3O)cc2)C(=O)NC(C(C)O)C(=O)NC(c2ccc(O)cc2)C(=O)NCC(=O)NC(CC(C)C)C(=O)NC(C)C(=O)NC(c2ccc(O)c(Cl)c2)C(=O)OC1C(N)=O` (centres unmarked) [Ramoplanin A2] ({Octa(2Z,4E)dienoyl(7-Me)}-N[X1][Hpg][Orn]T[Hpg][Hpg]TF[Orn][X2]T[Hpg]GLA[ξPhg(3-Cl-4-OH)]; ester 2-C; configuration not given here), the “cognition, neuropathology, and survival of PS19 mice” value is reported as “positive effect” and the “tau aggregation in PS19 mice” value is reported as “inhibits tau aggregation”.
